The data set in a line: Evaluation of appearance (Test Example 1). Format: physicochemical. The following applies: allowed to stand, about 1 hour after production; transparent / separated / cloudy. On the procedure: After producing the pharmaceutical compositions and the self-emulsifying compositions of Reference Examples by the production methods as described above, the compositions were allowed to stand, and after about 1 hour, their appearance was evaluated. The composition was evaluated “transparent” when the composition was homogeneous due to the good compatibility. The composition was evaluated “separated” when the separation was observed and “cloudy” when opacity was observed.

With `CC(C)c1c(C(=O)Nc2ccccc2)c(-c2ccccc2)c(-c2ccc(F)cc2)n1CC[C@@H](O)C[C@@H](O)CC(=O)[O-].CC(C)c1c(C(=O)Nc2ccccc2)c(-c2ccccc2)c(-c2ccc(F)cc2)n1CC[C@@H](O)C[C@@H](O)CC(=O)[O-].[Ca+2]` [atorvastatin calcium], the Appearance entry was “good appearance was not realized”.

The record behind these values is patent US20180015038A1, “OMEGA-3 FATTY ACID SELF-EMULSIFYING COMPOSITION” (MOCHIDA PHARMACEUTICAL CO., LTD., priority 2015, published 2018).
